How the values were obtained:
PI3Kβ = PI3Kβ (Homo sapiens (Human), UniProt P42338); assay: TR-FRET enzymatic assay of PI3K isoforms, PI3Kβ; format: biochemical; conditions: for PI3Kγ/PI3Kβ ratio: ratio of IC50 values, selectivity for PI3Kβ over PI3Kγ; for IC50: TR-FRET, 2×Km ATP, 30 minutes at 25° C.
Protocol: (§1) The compounds of formula (I) were characterized for their enzymatic activity against the PI3K isoforms. The activities were measured using a time-resolved fluorescence resonance energy transfer (TR-FRET) assay. TR-FRET monitored the formation of 3,4,5-inositol triphosphate molecule that competed with fluorescently labeled PIP3 for binding to the GRP-1 pleckstrin homology domain protein.
(§2) Class I PI3K isoforms were expressed and purified as heterodimeric recombinant proteins. All assay reagents and buffers for the TR-FRET assay were purchased from Millipore. […] The reactions were terminated with a final concentration of 10 mM EDTA, 10 nM labeled-PIP3, and 35 nM Europium labeled GRP-1 detector protein before reading TR-FRET on an Envision plate reader (Ex: 340 nm; Em: 615/665 nm; 100 μs delay and 500 μs read window).
(§3) The results were normalized based on positive (1 μM wortmanin) and negative (DMSO) controls, and the IC50 values for PI3K α, β, δ and γ were calculated from the fit of the dose-response curves to a four-parameter equation.

PI3Kγ = PI3Kγ (Homo sapiens (Human), UniProt P48736); assay: TR-FRET enzymatic assay of PI3K isoforms, PI3Kγ; format: biochemical; conditions: 2×Km ATP, PI3Kγ at 2 nM, 30 minutes at 25° C.
Protocol: as §1, §2, §3

PI3Kδ = PI3Kδ (Homo sapiens (Human), UniProt O00329); assay: TR-FRET enzymatic assay of PI3K isoforms, PI3Kδ; conditions: read-out: PI3Kδ IC50, 2×Km ATP, 30 minutes at 25° C.
PI3Kδ, sequence (O00329 whole entry, canonical isoform): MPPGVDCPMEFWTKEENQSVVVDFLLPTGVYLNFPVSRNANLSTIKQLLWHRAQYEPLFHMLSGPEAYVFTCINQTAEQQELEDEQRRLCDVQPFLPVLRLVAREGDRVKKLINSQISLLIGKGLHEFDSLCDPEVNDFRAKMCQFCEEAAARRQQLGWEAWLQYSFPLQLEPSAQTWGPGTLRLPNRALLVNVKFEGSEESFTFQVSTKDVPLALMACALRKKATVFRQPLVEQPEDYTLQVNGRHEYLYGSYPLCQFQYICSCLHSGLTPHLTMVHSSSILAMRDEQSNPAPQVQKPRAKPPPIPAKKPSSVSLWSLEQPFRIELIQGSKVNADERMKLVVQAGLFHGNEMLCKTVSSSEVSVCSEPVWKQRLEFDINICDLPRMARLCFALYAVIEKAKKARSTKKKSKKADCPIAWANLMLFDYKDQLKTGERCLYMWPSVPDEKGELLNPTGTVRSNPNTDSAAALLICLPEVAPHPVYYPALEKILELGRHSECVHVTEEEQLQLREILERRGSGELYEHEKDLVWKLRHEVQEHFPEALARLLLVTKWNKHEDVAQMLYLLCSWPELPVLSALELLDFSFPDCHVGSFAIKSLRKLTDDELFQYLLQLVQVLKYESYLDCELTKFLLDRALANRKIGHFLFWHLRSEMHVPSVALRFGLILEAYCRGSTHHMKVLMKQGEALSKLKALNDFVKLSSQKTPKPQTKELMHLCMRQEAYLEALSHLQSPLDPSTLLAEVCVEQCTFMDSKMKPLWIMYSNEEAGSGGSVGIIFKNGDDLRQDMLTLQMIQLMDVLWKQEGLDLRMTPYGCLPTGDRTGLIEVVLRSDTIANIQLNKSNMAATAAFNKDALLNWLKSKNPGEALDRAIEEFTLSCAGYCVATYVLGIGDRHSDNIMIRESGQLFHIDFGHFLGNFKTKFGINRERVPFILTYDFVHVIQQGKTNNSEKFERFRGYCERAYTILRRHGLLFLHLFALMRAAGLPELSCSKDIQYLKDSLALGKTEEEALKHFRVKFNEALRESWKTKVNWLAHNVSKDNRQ
PI3Kδ, sequence (P27986 whole entry partner, canonical isoform): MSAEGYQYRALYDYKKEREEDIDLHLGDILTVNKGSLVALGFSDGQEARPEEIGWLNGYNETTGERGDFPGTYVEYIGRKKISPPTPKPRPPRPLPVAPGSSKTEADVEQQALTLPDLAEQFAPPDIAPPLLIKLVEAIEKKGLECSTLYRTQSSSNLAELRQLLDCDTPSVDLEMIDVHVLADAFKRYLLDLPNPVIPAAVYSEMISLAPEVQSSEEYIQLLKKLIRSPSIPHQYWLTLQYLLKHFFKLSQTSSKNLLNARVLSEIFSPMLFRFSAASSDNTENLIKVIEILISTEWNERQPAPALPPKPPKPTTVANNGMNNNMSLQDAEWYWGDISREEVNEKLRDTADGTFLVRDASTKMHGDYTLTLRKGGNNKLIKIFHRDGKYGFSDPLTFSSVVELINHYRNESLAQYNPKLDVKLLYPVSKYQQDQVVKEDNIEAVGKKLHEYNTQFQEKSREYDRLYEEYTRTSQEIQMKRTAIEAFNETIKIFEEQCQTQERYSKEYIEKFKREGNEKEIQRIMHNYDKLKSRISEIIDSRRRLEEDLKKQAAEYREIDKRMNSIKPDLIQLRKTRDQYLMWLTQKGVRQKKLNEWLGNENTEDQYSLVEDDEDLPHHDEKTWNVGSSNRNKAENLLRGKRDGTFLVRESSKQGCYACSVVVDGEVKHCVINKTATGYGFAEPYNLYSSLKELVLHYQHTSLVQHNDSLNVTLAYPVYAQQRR
Protocol: as §1, §2, §3

PI3Kβ, sequence (P42338 whole entry, canonical isoform): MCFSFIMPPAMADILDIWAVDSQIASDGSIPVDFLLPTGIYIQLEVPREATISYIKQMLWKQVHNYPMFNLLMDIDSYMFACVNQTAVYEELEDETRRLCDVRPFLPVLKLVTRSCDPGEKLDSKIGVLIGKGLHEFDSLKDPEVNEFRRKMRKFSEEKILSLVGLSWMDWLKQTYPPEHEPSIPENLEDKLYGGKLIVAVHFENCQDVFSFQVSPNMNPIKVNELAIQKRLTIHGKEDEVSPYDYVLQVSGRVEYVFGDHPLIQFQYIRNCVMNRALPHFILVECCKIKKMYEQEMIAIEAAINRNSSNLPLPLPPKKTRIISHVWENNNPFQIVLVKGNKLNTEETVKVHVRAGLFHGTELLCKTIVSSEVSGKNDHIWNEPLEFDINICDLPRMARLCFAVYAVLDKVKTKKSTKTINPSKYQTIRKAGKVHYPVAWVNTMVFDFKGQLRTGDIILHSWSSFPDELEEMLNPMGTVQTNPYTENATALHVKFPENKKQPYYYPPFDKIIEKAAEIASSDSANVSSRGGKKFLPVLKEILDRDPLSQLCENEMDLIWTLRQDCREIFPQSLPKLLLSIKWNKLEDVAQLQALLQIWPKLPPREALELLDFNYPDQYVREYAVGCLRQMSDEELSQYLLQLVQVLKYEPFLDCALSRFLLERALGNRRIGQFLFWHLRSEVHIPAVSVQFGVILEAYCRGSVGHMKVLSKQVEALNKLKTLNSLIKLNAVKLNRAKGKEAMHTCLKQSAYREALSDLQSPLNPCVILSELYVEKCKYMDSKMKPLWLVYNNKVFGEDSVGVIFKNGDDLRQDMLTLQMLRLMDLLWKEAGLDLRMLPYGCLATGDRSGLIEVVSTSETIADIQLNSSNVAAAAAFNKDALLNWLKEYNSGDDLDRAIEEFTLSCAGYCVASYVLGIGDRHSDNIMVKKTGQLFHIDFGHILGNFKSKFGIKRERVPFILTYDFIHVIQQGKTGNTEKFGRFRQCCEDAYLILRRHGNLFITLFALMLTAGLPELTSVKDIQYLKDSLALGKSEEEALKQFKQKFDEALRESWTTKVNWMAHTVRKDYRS
PI3Kβ, sequence (P27986 whole entry partner, canonical isoform): as the sequence (P27986 whole entry partner, canonical isoform) above
PI3Kγ, sequence (P48736 whole entry, canonical isoform): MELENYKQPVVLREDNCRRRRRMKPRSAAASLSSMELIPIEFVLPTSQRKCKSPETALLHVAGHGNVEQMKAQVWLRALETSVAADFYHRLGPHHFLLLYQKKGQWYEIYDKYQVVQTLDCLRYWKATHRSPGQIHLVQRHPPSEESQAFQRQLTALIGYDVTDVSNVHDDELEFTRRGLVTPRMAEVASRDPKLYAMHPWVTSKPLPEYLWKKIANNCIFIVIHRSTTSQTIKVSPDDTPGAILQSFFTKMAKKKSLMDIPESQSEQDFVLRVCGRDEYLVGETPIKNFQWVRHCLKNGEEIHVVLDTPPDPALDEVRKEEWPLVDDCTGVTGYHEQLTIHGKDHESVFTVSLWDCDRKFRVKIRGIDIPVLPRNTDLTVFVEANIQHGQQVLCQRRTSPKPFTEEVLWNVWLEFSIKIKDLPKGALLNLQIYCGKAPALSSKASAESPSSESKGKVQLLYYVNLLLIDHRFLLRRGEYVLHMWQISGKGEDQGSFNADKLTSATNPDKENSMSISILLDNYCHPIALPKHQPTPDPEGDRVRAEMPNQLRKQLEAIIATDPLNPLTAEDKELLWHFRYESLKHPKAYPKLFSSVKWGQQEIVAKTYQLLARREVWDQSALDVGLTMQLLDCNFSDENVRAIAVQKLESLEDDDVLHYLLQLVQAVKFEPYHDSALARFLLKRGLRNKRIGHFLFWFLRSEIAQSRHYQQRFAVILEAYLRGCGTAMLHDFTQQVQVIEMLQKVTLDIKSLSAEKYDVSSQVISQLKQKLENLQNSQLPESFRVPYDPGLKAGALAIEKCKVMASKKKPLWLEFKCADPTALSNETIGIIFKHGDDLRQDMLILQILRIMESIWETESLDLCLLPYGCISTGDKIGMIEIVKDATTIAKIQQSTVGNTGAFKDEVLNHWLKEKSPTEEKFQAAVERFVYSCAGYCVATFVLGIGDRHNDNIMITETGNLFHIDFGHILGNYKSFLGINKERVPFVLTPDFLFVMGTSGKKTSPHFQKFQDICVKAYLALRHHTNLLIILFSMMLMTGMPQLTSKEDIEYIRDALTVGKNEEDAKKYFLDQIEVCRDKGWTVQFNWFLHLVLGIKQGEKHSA

PI3Kγ/PI3Kβ ratio (PI3Kβ)	IC50 (PI3Kβ) [nM]	IC50 (PI3Kγ) [nM]	IC50 (PI3Kδ) [nM]	Structure (SMILES)
–	1.8	1500	1.9	C[C@H](Nc1nc(N)nc(N)c1C#N)c1nc2c(Cl)ccc(Cl)c2c(=O)n1-c1cnc(N)cn1 [Compound 11, (S)-2,4-diamino-6-((1-(3-(5-aminopyrazin-2-yl)-5,8-dichloro-4-oxo-3,4-dihydroquinazolin-2-yl)ethyl)amino)pyrimidine-5-carbonitrile]
–	1200	> 10000	97	Nc1cnc(-n2c([C@@H](Nc3nc(N)nc(N)c3Cl)C3CC3)nc3c(Cl)ccc(Cl)c3c2=O)cn1 [Compound 12, (S)-3-(5-aminopyrazin-2-yl)-5,8-dichloro-2-(cyclopropyl((2,6-diamino-5-chloropyrimidin-4-yl)amino)methyl)quinazolin-4(3H)-one]
–	170	> 10000	31	C[C@H](Nc1nc(N)nc(N)c1Cl)c1nc2c(Cl)ccc(Cl)c2c(=O)n1-c1cnc(N)cn1 [Compound 13, (S)-3-(5-aminopyrazin-2-yl)-5,8-dichloro-2-(1-((2,6-diamino-5-chloropyrimidin-4-yl)amino)ethyl)quinazolin-4(3H)-one]
–	200	> 10000	340	C[C@H](Nc1nc(N)nc(C(F)F)c1C#N)c1nc2c(Cl)cc(F)cc2c(=O)n1-c1cnc(N)cn1 [Compound 14, (S)-2-amino-4-((1-(3-(5-aminopyrazin-2-yl)-8-chloro-6-fluoro-4-oxo-3,4-dihydroquinazolin-2-yl)ethyl)amino)-6-(difluoromethyl)pyrimidine-5-carbonitrile]
–	9.8	1500	53	C[C@H](Nc1nc(N)nc(N)c1C#N)c1nc2c(F)cc(F)cc2c(=O)n1-c1cnc(N)cn1 [Compound 15, (S)-2,4-Diamino-6-((1-(3-(5-aminopyrazin-2-yl)-6,8-difluoro-4-oxo-3,4-dihydroquinazolin-2-yl)ethyl)amino)pyrimidine-5-carbonitrile]
–	14	4900	32	C[C@H](Nc1nc(N)nc(N)c1C#N)c1nc2c(Cl)cc(F)cc2c(=O)n1-c1cnc(N)cn1 [Compound 17]
–	720	> 10000	–	Nc1cnc(-n2c([C@@H](Nc3ncnc(N)c3Cl)C3CC3)nc3cccc(Cl)c3c2=O)cn1 [Compound 21, (S)-2-(((6-Amino-5-chloropyrimidin-4-yl)amino)(cyclopropyl)methyl)-3-(5-aminopyrazin-2-yl)-5-chloroquinazolin-4(3H)-one]
0.6	–	–	–	C[C@H](Nc1nc(N)nc(N)c1C#N)c1nc2cccc(Cl)c2c(=O)n1-c1cccnc1 [Compound X, (S)-2,4-diamino-6-((1-(5-chloro-4-oxo-3-(pyridin-3-yl)-3,4-dihydroquinazolin-2-yl)ethyl)amino)pyrimidine-5-carbonitrile, reference compound]

Further lines, the molecule ahead of its results:

Structure (SMILES)	PI3Kγ/PI3Kβ ratio (PI3Kβ)	IC50 (PI3Kβ) [nM]	IC50 (PI3Kγ) [nM]	IC50 (PI3Kδ) [nM]
C[C@H](Nc1nc(N)nc(N)c1C#N)c1nc2cccc(Cl)c2c(=O)n1-c1ccccc1 [(S)-2,4-diamino-6-((1-(5-chloro-4-oxo-3-phenyl-3,4-dihydroquinazolin-2-yl)ethyl)amino)pyrimidine-5-carbonitrile, reference compound]	less than 1	–	–	–
C[C@H](Nc1nc(N)nc(N)c1Cl)c1nc2c(F)ccc(Cl)c2c(=O)n1-c1cnc(N)cn1 [Compound 1, (S)-3-(5-aminopyrazin-2-yl)-5-chlor-2-(1-((2,6-diamino-5-chloropyrimidin-4-yl)amino)ethyl)-8-fluoroquinazolin-4(3H)-one]	–	54	> 10000	–
C[C@H](Nc1nc(N)nc(N)c1C#N)c1nc2c(F)ccc(Cl)c2c(=O)n1-c1cnc(N)cn1 [Compound 2, (S)-2,4-diamino-6-((1-(3-(5-aminopyrazin-2-yl)-5-chloro-8-fluoro-4-oxo-3,4-dihydroquinazolin-2-yl)ethyl)amino)pyrimidine-5-carbonitrile]	–	4.4	630	3.5
C[C@H](Nc1ncnc(N)c1C#N)c1nc2c(F)ccc(Cl)c2c(=O)n1-c1cnc(N)cn1 [Compound 3, (S)-4-amino-6-((1-(3-(5-aminopyrazin-2-yl)-5-chloro-8-fluoro-4-oxo-3,4-dihydroquinazolin-2-yl)ethyl)amino)pyrimidine-5-carbonitrile]	–	74	> 10000	11
C[C@H](Nc1ncnc2[nH]nnc12)c1nc2c(F)cccc2c(=O)n1-c1cnc(N)cn1 [Compound 4, (S)-2-(1-((3H-[1,2,3]triazolo[4,5-d]pyrimidin-7-yl)amino)ethyl)-3-(5-aminopyrazin-2-yl)-8-fluoroquinazolin-4(3H)-one]	–	> 10000	> 10000	2700
C[C@H](Nc1ncnc2occc12)c1nc2c(F)ccc(Cl)c2c(=O)n1-c1cnc(N)cn1 [Compound 5, (S)-3-(5-amninopyrazin-2-yl)-5-chloro-8-fluoro-2-(1-(furo[2,3-d]pyrimidin-4-ylamino)ethyl)quinazolin-4(3H)-one]	–	5800	> 10000	2300
C[C@H](Nc1nc(N)nc(N)c1C#N)c1nc2cccc(Cl)c2c(=O)n1-c1cnc(N)cn1 [Compound 6, (S)-2,4-diamino-6-((1-(3-(5-aminopyrazin-2-yl)-5-chloro-4-oxo-3,4-dihydroquinazolin-2-yl)ethyl)amino)pyrimidine-5-carbonitrile]	–	2	280	2
C[C@H](Nc1nc(N)nc(N)c1Cl)c1nc2cccc(Cl)c2c(=O)n1-c1cnc(N)cn1 [Compound 7, (S)-3-(5-aminopyrazin-2-yl)-5-chloro-2-(1-((2,6-diamino-5-chloropyrimidin-4-yl)amino)ethyl)quinazolin-4(3H)-one]	–	47	4000	24
Nc1cnc(-n2c([C@@H](Nc3nc(N)nc(N)c3Cl)C3CC3)nc3cccc(Cl)c3c2=O)cn1 [Compound 8, (S)-3-(5-aminopyrazin-2-yl)-5-chloro-2-(cyclopropyl((2,6-diamino-5-chloropyrimidin-4-yl)amino)methyl)quinazolin-4(3H)-one]	–	190	> 10000	24
N#Cc1c(N)nc(N)nc1N[C@H](c1nc2cccc(Cl)c2c(=O)n1-c1cnc(N)cn1)C1CC1 [Compound 9]	–	4.2	900	2.7
N#Cc1c(N)nc(N)nc1N[C@H](c1nc2c(Cl)ccc(Cl)c2c(=O)n1-c1cnc(N)cn1)C1CC1 [Compound 10, (S)-2,4-diamino-6-(((3-(5-aminopyrazin-2-yl)-5,8-dichloro-4-oxo-3,4-dihydroquinazolin-2-yl)(cyclopropyl)methyl)amino)pyrimidine-5-carbonitrile]	–	3.6	3100	2.4

From patent US9499523B2, “Phosphatidylinositol 3-kinase inhibitors” (Gilead Sciences, Inc., priority 2014, dated 2016)
